Source: US7879887B2, “α-amino acid derivatives and medicaments containing the same as an active ingredient” (Nissan Chemical Industries, Ltd., priority 2006, dated 2011)

Experiments:
[1] = target: T1, CDK1/Cyclin B complex (Homo sapiens, UniProt P06493); assay: In vitro kinase assay, CDK1/Cyclin B complex; assay type: biochemical; details: recombinant protein (Upstate)
T1 construct: purchased Upstate Inc. 14-450
Protocol: Inhibitory activity against Aurora A, CDK1/Cyclin B complex, CDK2/Cyclin E complex and CDK3/Cyclin E complex were measured by in vitro kinase assay using recombinant proteins. The assays were carried out by using recombinant proteins (Upstate Inc.) for Aurora A, CDK1/Cyclin B complex, CDK2/Cyclin E complex and CDK3/Cyclin E complex (respective cat. nos. 14-511, 14-450, 14-448 and 14-487), in accordance with the procedure described in the product instructions thereof. The 50% inhibitory concentrations (IC50 values) were calculated by assigning measured values in the case of not containing a test compound to an inhibition of 0%, and assigning measured values in the case of not containing a test compound and enzyme to an inhibition of 100%.

[2] = target: CDK2/Cyclin E complex (Homo sapiens, UniProt P24941); assay: In vitro kinase assay, CDK2/Cyclin E complex; assay type: biochemical; details: recombinant protein (Upstate); read-out: CDK2/cyclinE IC50
Protocol: (§1) Inhibitory activity against Aurora A, CDK1/Cyclin B complex, CDK2/Cyclin E complex and CDK3/Cyclin E complex were measured by in vitro kinase assay using recombinant proteins.

[3] = target: T2, CDK3/Cyclin E complex (Homo sapiens, UniProt Q00526); assay: In vitro kinase assay, CDK3/Cyclin E complex; assay type: biochemical; details: recombinant protein (Upstate); read-out: CDK3/cyclinE IC50
T2 construct: purchased Upstate Inc. 14-487
T2 sequence (Q00526 whole entry): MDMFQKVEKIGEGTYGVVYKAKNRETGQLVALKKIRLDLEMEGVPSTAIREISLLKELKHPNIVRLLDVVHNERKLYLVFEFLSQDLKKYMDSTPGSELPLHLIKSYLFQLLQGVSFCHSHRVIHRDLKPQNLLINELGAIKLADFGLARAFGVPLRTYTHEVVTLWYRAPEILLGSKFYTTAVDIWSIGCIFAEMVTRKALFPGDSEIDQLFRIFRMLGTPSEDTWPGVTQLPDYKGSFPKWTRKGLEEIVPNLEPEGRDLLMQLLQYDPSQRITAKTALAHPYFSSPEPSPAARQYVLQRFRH
T2 sequence (P24864 whole entry partner): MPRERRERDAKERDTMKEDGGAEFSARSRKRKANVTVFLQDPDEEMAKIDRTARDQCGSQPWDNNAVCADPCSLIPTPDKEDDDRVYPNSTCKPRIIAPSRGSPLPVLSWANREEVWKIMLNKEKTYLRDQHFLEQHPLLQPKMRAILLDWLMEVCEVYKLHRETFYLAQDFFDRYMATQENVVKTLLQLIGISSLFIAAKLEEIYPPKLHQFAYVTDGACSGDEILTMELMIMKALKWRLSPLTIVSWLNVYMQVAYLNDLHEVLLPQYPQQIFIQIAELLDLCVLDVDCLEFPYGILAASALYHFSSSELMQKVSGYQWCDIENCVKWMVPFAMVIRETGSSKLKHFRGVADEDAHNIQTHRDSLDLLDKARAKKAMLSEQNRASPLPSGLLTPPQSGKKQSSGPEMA
Protocol: as §1

[4] = test system: colon carcinoma cell line SW620; assay: Cell proliferation inhibitory activity, SW620; assay type: cell-based, human; details: Homo sapiens, SW-620, 96 h, cells counted 4 days later with Cell Counting Kit-8
How it was run: (§2)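 IC50 values come from a 4-day proliferation assay in which cells were cultured with multiple test compound concentrations and quantified by Cell Counting Kit-8.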

[5] = test system: pancreatic cancer cell line MIAPaCa-2; assay: Cell proliferation inhibitory activity, MIAPaCa-2; assay type: cell-based; details: Homo sapiens, MIA PaCa-2, 96 h; cells counted 4 days later, Cell Counting Kit-8
Protocol: (§3) Evaluations were carried out using colon carcinoma cell line SW620 (Cat. No. CCL-227), lung carcinoma cell line NCI-H460 (Cat. No. HTB-177), prostate cancer cell line DU 145 (Cat. No. HTB-81), breast cancer cell line MDA-MB-231 (Cat. No. HTB26) and leukemia cell line KG-1a (Cat. No. CCL-246.1) purchased from ATCC, pancreatic cancer cell line MIAPaCa-2 (Cat. No. CRL-1420) purchased from Dainippon Pharmaceutical, and ovarian cancer cell line IGROV1 received from the Netherland Cancer Institute. The cells were cultured under the conditions recommended by the supplier for each cell line, or with respect to IGROV1, according to the method described in Cancer Res. 59: 4559-4563, 1999. Cells suspended in media were added to solutions containing the test substances at various concentrations followed by culturing in a 5% CO2 incubator at 37° C. The numbers of cells were counted 4 days later with the Cell Counting Kit-8. IC50 values were calculated by assigning measured values in the case of not containing a test substance to an inhibition of 0%, and assigning measured values in the case of not containing a test substance or cells to an inhibition of 100%.

[6] = test system: prostate cancer cell line DU 145; assay: Cell proliferation inhibitory activity, DU 145; assay type: cell-based, human; details: Homo sapiens, 96 h, cells counted 4 days later with Cell Counting Kit-8
How it was run: as §2

[7] = test system: lung carcinoma cell line NCI-H460; assay: Cell proliferation inhibitory activity, NCI-H460; assay type: cell-based; details: Homo sapiens, 96 h, cells counted 4 days later with Cell Counting Kit-8
Protocol: as §3

[8] = test system: breast cancer cell line MDA-MB-231; assay: Cell proliferation inhibitory activity, MDA-MB-231; assay type: cell-based; details: Homo sapiens, 96 h, cells counted 4 days later with Cell Counting Kit-8
Protocol: as §3

[9] = test system: ovarian cancer cell line IGROV1; assay: Cell proliferation inhibitory activity, IGROV1; assay type: cell-based; details: Homo sapiens, IGROV-1, 96 h, cells counted 4 days later with Cell Counting Kit-8
Protocol: as §3

[10] = test system: leukemia cell line KG-1a; assay: Cell proliferation inhibitory activity, KG-1a; assay type: cell-based; details: Homo sapiens, 96 h, cells counted 4 days later with Cell Counting Kit-8
How it was run: as §2

[11] = target: T3, recombinant human βARK1 (Homo sapiens, UniProt P25098); assay: Inhibitory activity against βARK1 (33P phosphorylation of synthetic peptide); assay type: biochemical; details: recombinant human βARK1, 60 minutes at room temperature
T3 construct: made in house; host or cells: Sf-9 insect cells (baculovirus, pBacPAK8)
T3 sequence (P25098 1-689): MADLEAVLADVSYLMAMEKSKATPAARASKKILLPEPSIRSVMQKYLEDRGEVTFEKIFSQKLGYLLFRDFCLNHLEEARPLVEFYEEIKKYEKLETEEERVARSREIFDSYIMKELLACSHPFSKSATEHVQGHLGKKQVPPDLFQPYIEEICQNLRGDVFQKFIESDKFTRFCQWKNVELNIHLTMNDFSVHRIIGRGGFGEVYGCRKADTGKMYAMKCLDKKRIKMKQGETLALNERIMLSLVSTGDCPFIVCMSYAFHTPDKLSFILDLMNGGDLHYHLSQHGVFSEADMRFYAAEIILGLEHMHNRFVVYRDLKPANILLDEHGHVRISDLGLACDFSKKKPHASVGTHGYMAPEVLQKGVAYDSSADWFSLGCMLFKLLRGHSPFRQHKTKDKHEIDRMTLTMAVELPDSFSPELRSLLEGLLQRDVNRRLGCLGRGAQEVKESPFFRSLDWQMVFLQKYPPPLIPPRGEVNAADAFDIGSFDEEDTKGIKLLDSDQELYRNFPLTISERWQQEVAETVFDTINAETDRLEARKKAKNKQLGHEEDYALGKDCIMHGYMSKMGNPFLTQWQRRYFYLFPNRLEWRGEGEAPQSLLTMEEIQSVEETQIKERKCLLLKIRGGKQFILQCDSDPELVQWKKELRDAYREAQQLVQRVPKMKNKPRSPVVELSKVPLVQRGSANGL
Protocol: Human βARK1 was amplified by PCR based on the base sequence of human βARK1 mRNA registered in GenBank (Accession No. M80776) using a human leukocyte cDNA library (Gibco BRL Cat. No. 10421-022) as a template. The amplified cDNA fragment was inserted into a pBacPAK8 vector (Clontech) to construct a plasmid.
Recombinant human βARK1 was expressed using the BacPAK Baculovirus Expression System (Clontech, Cat. No. K1601-1). 1×10^6 Sf-9 cells were adhered to a 35 mm dish in 2.5 mL of TMN-FH Insect Medium containing 10 vol % FBS (Pharminogen, Cat. No. PM-21227M) and cultured overnight at 27° C. On the following day, the medium was removed and 500 ng of the above plasmid, BacPAK6 viral DNA cleaved with Bsu36I (5 μL) and 1.5 mL of the same medium mixed with 4 μL of Bacfectin were added followed by culturing for 5 hours, further adding 1.5 mL of medium and subsequently culturing for 5 days. […] The culture supernatant after 5 days was recovered and a plaque assay was carried out to isolate single plaques. These were then infected into Sf-9 cells and the resulting culture supernatant was designated as Passage 1 (1−3×10^11 pfu/mL). Passage 1 was added to 3×10^7 Sf-9 cells to a multiplicity of infection (MOI) of 0.1 (pfu/cell), suspension culturing was carried out for 5 days using a spinner flask, and the resulting culture supernatant was designated as Passage 2 (4×10^10 pfu/mL) and used as a viral liquid for large-volume expression.
Sf-9 cells at 3×10^9 cells/200 mL were infected by adding Passage 2 to an MOI of 100 followed by addition of medium to bring to a liquid volume of 2 L and further culturing for 3 days. After recovering the cells by centrifugation and washing three times with PBS, the cells were suspended in 100 mL of Lysis Buffer (20 mmol/L HEPES-HCl (pH 7.2), 5 mmol/L EDTA, 3 mmol/L phenylmethylsulfonyl fluoride (PMSF)). After lysing the cells by ultrasonic treatment at low temperature, the supernatant was recovered by centrifuging (45,000×g, 15 minutes) (sup1). NaCl was added to the resulting supernatant to a final concentration of 250 mmol/L followed by ultracentrifugation (300,000×g, 60 minutes) and using the subsequent supernatant as a crude cell extract (sup2).
Purification was carried out with reference to the literature (Benovic, J. L., Methods Enzymol. 1991; 200: 351-362; Kim, C. M. et al., Receptor 1993; 3: 39-55; Sohlemann, P. et al., FEBS Letters 1993; 324: 59-62). The crude cell extract was accurately brought to a volume of 400 mL with Buffer C (20 mmol/L HEPES-HCl (pH 7.2), 5 mmol/L EDTA, 0.02 vol % Triton X-100) followed by loading onto a 50 mL SP-Sepharose FF (Amersham Pharmacia Biotech) column equilibrated with Buffer C. […] ETA was carried out on each fraction using anti-GRK2 antibody (Santa-Cruz Cat. No. SC-562) and the positive fractions were collected (GRK2=βARK1). This was then diluted three-fold with Buffer C and loaded on a 5 mL HiTrap Heparin column (Amersham Pharmacia Biotech) column equilibrated with Buffer C. After washing the column with Wash Buffer (100 mmol/L NaCl, Buffer C), the column was eluted with an NaCl concentration gradient (100 to 600 mmol/L NaCl for 100 minutes, flow rate: 1 mL/min). The positive fractions as determined by ETA were collected and stored in a freezer at −80° C.
A synthetic peptide having an amino acid sequence of biotinated-[…] was used in accordance with a previous report (Chen, C. Y. et al., J. Biol. Chem. 1993; 268: 7825-7831). This synthetic peptide can also be synthesized with reference to known synthesis methods (for example, Chen, C. Y. et al., J. Biol. Chem. 1993; 268: 7825-7831, Biochemistry 1991; 30: 5118-5125). 2 μl of a DMSO solution in which the test compound was diluted to as to be […] the final concentration was dispensed into a 96-well plate (round bottom) (Falcon 351190) (final concentration: 4 vol % DMSO). […]

T1 sequence (P06493 whole entry): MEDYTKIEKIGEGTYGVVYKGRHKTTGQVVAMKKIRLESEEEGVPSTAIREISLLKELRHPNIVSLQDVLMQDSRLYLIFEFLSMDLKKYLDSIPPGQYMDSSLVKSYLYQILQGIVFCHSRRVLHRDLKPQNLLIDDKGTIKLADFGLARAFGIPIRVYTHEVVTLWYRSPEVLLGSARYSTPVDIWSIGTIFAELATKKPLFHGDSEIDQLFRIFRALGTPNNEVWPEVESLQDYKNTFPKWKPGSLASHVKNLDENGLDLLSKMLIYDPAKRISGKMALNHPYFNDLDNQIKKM
T1 sequence (P14635 whole entry partner): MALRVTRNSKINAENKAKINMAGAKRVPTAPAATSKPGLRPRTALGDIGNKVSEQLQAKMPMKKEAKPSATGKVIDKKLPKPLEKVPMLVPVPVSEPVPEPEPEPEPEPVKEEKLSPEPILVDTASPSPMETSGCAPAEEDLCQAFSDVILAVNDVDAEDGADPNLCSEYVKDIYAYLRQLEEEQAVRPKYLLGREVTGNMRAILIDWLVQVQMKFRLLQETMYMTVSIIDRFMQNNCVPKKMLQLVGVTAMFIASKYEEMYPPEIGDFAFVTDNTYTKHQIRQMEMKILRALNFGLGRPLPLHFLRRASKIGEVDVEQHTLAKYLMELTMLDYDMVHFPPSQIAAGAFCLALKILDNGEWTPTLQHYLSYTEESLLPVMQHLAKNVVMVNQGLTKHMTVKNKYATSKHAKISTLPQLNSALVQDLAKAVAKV

SMILES	IC50 [1] [µM]	IC50 [2] [µM]	IC50 [3] [µM]	IC50 [4] [µM]	IC50 [5] [µM]	IC50 [6] [µM]	IC50 [7] [µM]	IC50 [8] [µM]	IC50 [9] [µM]	IC50 [10] [µM]	IC50 [11] [µM]
CNC(=O)c1cc(NC(C)(C)C(=O)Nc2nc3c(C(F)(F)F)cc4[nH]ncc4c3s2)ccc1F [compound 137]	0.039	0.04	0.012	0.2	3.1	0.4	0.4	1.9	3	< 0.1	–
Cc1cc2[nH]ncc2c2sc(NC(=O)C3(Nc4ccc(Cl)cc4)CC3)nc12 [compound 127]	–	0.128	0.185	0.7	–	3	3.1	4.3	4.9	< 0.1	0.0062
CC(Nc1ccc(Cl)cc1)C(=O)Nc1nc2ccc3[nH]ncc3c2s1 (centres unmarked) [compound 24]	–	0.05	0.075	0.9	4.8	3.2	–	3.8	4.6	< 0.1	0.008
CCC(=O)Nc1cc(NC(C)(C)C(=O)Nc2nc3c(C(F)(F)F)cc4[nH]ncc4c3s2)ccc1F [compound 76]	–	0.294	0.124	0.9	4.9	1.8	1.5	4.6	2.7	0.3	0.0093
